The source of these data is article PMC8414367, “(E)-7-Ethylidene-lithocholic Acid (7-ELCA) Is a Potent Dual Farnesoid X Receptor (FXR) Antagonist and GPBAR1 Agonist Inhibiting FXR-Induced Gene Expression in Hepatocytes and Stimulating Glucagon-like Peptide-1 Secretion From Enteroendocrine Cells” (Frontiers in Pharmacology, 2021).

Data set [1] has as its target T1, human FXR (Homo sapiens, UniProt Q96RI1).
T1 sequence (Q96RI1 1-486): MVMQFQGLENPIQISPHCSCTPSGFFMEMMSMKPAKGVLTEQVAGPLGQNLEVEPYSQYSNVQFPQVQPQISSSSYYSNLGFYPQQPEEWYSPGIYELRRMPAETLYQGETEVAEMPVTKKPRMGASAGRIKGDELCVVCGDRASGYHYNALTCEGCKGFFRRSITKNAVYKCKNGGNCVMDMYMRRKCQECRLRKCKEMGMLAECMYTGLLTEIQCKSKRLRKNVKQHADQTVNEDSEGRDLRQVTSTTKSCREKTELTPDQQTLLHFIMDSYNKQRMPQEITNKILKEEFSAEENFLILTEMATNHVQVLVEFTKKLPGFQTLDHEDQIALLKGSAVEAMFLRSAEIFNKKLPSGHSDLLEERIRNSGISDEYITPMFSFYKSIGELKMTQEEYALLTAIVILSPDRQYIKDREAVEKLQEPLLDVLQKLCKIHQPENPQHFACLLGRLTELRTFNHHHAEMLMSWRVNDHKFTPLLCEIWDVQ
T1 sequence (P19793 1-462 partner): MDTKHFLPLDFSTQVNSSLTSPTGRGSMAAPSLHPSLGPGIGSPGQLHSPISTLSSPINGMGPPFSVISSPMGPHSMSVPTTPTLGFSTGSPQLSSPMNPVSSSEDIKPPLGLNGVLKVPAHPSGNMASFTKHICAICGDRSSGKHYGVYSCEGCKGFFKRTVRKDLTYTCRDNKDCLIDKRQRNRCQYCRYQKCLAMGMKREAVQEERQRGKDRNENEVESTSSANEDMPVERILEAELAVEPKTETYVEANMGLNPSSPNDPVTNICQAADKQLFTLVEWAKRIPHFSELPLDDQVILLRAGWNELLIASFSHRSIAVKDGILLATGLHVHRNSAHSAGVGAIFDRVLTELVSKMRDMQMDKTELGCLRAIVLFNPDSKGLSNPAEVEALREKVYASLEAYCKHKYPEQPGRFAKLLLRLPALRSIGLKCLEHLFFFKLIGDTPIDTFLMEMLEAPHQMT
Put plainly: FXR luciferase reporter gene assay (FXRE-luc) in HepG2 cells, antagonistic mode. Format: cell-based. The settings on record: HepG2; tested compound 10 µM, GW4064 1 µM; read-out: relative response (%) to the model FXR ligand activation (set to be 100%), GW4064 1 µM. (In general: In a reporter assay the amount or activity of a reporter protein is the signal.)

The target in data set [2] is T1, human FXR. Put plainly: FXR luciferase reporter gene assay (FXRE-luc) in HepG2 cells, agonistic mode. Format: cell-based. The settings on record: 10 µM, 24 h, compound alone. How it is done: FIGURE 3 Interaction of 7-alkylated derivatives of CDCA and 7-ELCA with human FXR in luciferase reporter gene assays. HepG2 cells were transiently co-transfected with the luciferase FXRE-luc construct and with expression pSG5-hFXR, pSG5-hRXRα, and pRL-TK vectors. Cells were treated with indicated concentrations for 24 h alone (A), an agonistic mode) or with 1 µM OCA as an FXR agonist (B–F), an antagonistic mode). […] IC50 values were calculated using concentration-response curves nonlinear fitting in GraphPad software.

Another data set relates to various cell lines. Nature of the data set: MTS viability assay, summary over cell lines. The settings on record: 24 h, read-out: IC50, cellular viability. It counts as cell-based. As to the method: (§1) The potential cytotoxicity of 7-alkylated chenodeoxycholic acid derivatives were assessed in different human (HepG2, HepaRG and Huh7) and murine (AML12) hepatocyte-derived cell lines. For this purpose, hepatic cells were treated at increasing concentration for 24h and analyzed by MTS viability assay.
(§2) Table S2. Cell viability was determined using the Cell Titer 96 Aqueous One Solution Cell Proliferation Assay (MTS assay) after treatment with test compounds for 24 h in four different hepatic cell lines. Vehicle (0.1% DMSO) and background (10% SDS; v/v, toxic control) controls of cell viability were set to be 100% and 0%, respectively.

In the next data set the test system is HepaRG. Nature of the data set: MTS viability assay. It counts as cell-based, human. The following applies: Homo sapiens, 24 h, MTS, read-out: IC50 (µM), cell viability. How it is done: as §1, §2
A further data set deals with Huh7. Put plainly: MTS viability assay. The following applies: Homo sapiens, Huh-7; Huh7, 24 h, MTS; read-out: IC50 (µM), cell viability. Format: cell-based, human. As to the method: as §1, §2
Data set [3] in a line: MTS viability assay. It counts as cell-based, human. The following applies: human, vehicle = 100%. As to the method: as §1, §2
In general terms: Formazan colour is commonly taken as a measure of viable cells.

For the next data set, the system named is HepG2. Put plainly: MTS viability assay. Format: cell-based, human. The settings on record: Homo sapiens; HepG2, 24 h, MTS; read-out: IC50 (µM), cell viability. How it is done:
as §1, §2

The subject of the next data set is AML12. Put plainly: MTS viability assay. It counts as cell-based, murine. The settings on record: Mus musculus; AML12, 24 h, MTS; read-out: IC50 (µM), cell viability. As to the method: as §1, §2
Data set [4] in a line: MTS viability assay. The following applies: mouse, AML12 cells; AML12, 24 h, vehicle = 100%. Format: cell-based, murine. As to the method:
as §1, §2

In a further data set the target is T2, GPBAR1 (Homo sapiens, UniProt Q8TDU6).
T2 construct: host or cells: HepG2
T2 sequence (Q8TDU6 1-330): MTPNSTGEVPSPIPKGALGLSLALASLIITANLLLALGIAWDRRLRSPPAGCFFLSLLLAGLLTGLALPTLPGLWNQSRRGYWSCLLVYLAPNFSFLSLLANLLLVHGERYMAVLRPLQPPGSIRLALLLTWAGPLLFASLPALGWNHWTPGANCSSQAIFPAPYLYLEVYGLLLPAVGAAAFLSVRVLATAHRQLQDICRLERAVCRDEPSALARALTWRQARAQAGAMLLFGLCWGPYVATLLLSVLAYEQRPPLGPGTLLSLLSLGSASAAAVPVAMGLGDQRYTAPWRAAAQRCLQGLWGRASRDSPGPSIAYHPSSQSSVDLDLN
Nature of the data set: GPBAR1 CRE-luc luciferase reporter assay in HepG2 cells. It counts as cell-based. The following applies: 10 µM, 5 h, LCA 10 µM set as 100%. How it is done:
(C) Effects of LCA and 7-ELCA (both at 10 µM) on intracellular generation of cAMP in differentiated NCI-H716 cells after 30 min treatment. The increase in cAMP level (ΔcAMP) is presented as the difference between cAMP concertation in the treated sample after subtraction of the cAMP in the nontreated control sample. (D) Concentration-response curves for activation of GPBAR1 by LCA and 7-ELCA. EC50 values were calculated using nonlinear fitting of concentration-response curves. […] GLP-1 was normalized to protein concentration and GPBAR1 mRNA expression to GAPDH mRNA. Data are presented as a fold to control nontreated (NT) samples. Forskolin (FSK, 10 µM) was used as a GPBAR1-independent activator of cAMP production.

Data set [5] has as its system GPBAR1 mRNA, NCI-H716 cells. Put plainly: GPBAR1 mRNA expression in differentiated NCI-H716 cells. It counts as cell-based, human. The following applies: 10 µM, 2 h. As to the method: FIGURE 8 Effects of 7-alkylated derivatives of CDCA and 7-ELCA on the membrane receptor GPBAR1. […]. (B) CRE-luc activation depends on the presence of GPBAR1. (C) Effects of LCA and 7-ELCA (both at 10 µM) on intracellular generation of cAMP in differentiated NCI-H716 cells after 30 min treatment. The increase in cAMP level (ΔcAMP) is presented as the difference between cAMP concertation in the treated sample after subtraction of the cAMP in the nontreated control sample. (D) Concentration-response curves for activation of GPBAR1 by LCA and 7-ELCA. EC50 values were calculated using nonlinear fitting of concentration-response curves. […] (G) 7-ELCA (10 µM) increases GLP-1 secretion in siRNA control but not in siRNA Gpbar1 transfected GLUTag cells after 1 h treatment. GLP-1 was normalized to protein concentration and GPBAR1 mRNA expression to GAPDH mRNA. Data are presented as a fold to control nontreated (NT) samples. Forskolin (FSK, 10 µM) was used as a GPBAR1-independent activator of cAMP production.

The next data set has as its system NCI-H716 cells. Put plainly: GLP-1 secretion (ELISA) in differentiated NCI-H716 cells. The settings on record: 10 µM, 2 h. It counts as cell-based, human. For orientation: ELISA stands for enzyme-linked immunosorbent assay.

In the case of `CCCCCCCCC[C@@]1(O)C[C@@H]2C[C@H](O)CC[C@]2(C)C2CC[C@@]3(C)C(CC[C@@H]3[C@H](C)CCC(=O)O)C21` (stereo partly drawn) [2k, 3α,7α-Dihydroxy-7β-nonyl-5β-cholan-24-oic acid], the melting point (as a rule, the temperature, or range, at which the solid turns liquid) lay within 78 to 80 °C. Moreover, the remaining activity at 10 µM on human FXR [1] is 84.8 ± 1.8%. Moreover, the “FXR activation, agonistic mode (in words)” value at human FXR [2] was “significant inhibition of the FXR basal activation”. Moreover, the 50% inhibitory concentration (IC50) (commonly the midpoint of a concentration-inhibition curve) in the data set with various cell lines is around 15 µM. Also, in the data set on HepaRG, the IC50 is 18.9 µM. The IC50 in the data set on Huh7 amounted to 21.8 µM. In “MTS viability assay [3]” (HepG2 cells, HepG2, 24 h), the viability (in general, a read-out of living cells in per cent, often relative to untreated cells) at 24 h, 10 µM was found to be 79.8 ± 2.5%. For the same compound, in the data set “MTS viability assay [3]” (HepaRG cells), the viability at 24 h, 10 µM is 71.6 ± 2.8%. The viability at 24 h, 10 µM in “MTS viability assay [3]” (Huh7 cells, Huh7, 24 h) was 118 ± 4.9%. Moreover, in the data set with HepG2, the IC50 is around 10.9 µM. For the same compound, the IC50 with AML12 is 12.5 µM. In “MTS viability assay [4]”, the viability at 24 h, 10 µM is 68 ± 1.4%. Besides, the “CRE-luc activation compared to LCA (in words)” value at GPBAR1 was “weak or no ability to act as agonists of GPBAR1”.
`C[C@H](CCC(=O)O)[C@H]1CC[C@H]2[C@@H]3CC[C@@H]4C[C@H](O)CC[C@]4(C)[C@H]3CC[C@]12C` [LCA, 3α-hydroxy-5β-cholan-24-oic acid, reference compound]: in data set [5], the “GPBAR1 mRNA expression” value is given as “stimulate”. In the data set on NCI-H716 cells, the GLP-1 secretion entry is “stimulate GLP-1 secretion”.
